Results as given in patent US8835426B2, “Cyclic urea and carbamate inhibitors of 11β-hydroxysteroid dehydrogenase 1” (Vitae Pharmaceuticals, Inc., priority 2007, dated 2014).
pIC50: −log10 of the molar value.

Columns and labels:
[1] = target: T1, 11β-HSD1 in whole cells (omental adipocytes) (Homo sapiens, UniProt P28845); assay: Inhibition of 11β-HSD1 in whole cells (omental adipocytes), cortisone to cortisol conversion, SPA; type: cell-based; settings: 100 nM [3H] cortisone, 37 degrees C
T1 construct: host or cells: omental adipocytes differentiated from preadipocytes
Procedure: The inhibition of 11β-HSD1 by compounds of Formula I in whole cells was measured as follows. Omental adipocytes cultured in 96-well plates were purchased from Zen-Bio, Inc. and used at least two weeks after differentiation from precursor preadipocytes started in medium supplemented with adipogenic and lipogenic hormones (human insulin, dexamethasone, isobutylmethylxanthine and PPAR-gamma agonist). The cells were maintained in full adipocyte medium (DMEM/Ham's F-12 (1:1, v/v), HEPES pH 7.4, fetal bovine serum, penicillin, streptomycin and Amphotericin B, supplied by Zen-Bio, Inc.) at 37 degrees C., 5% CO2 and transferred into serum-free, phenol red free medium for overnight incubation. The assay was performed in a total volume of 200 microliters. The cells were pre-incubated with serum-free, phenol red free medium containing 0.1% (v/v) of DMSO and various concentrations of compounds of Formula I at least 1 h before [^3H] cortisone in ethanol (50 Ci/mmol, ARC, Inc.) was added to achieve final concentration of cortisone of 100 nM. The cells were incubated for 3-4 at 37 degrees Centigrade, 5% CO2. Negative controls were incubated without radioactive substrate and received the same amount of [^3H] cortisone at the end of the incubation. Formation of [^3H] cortisol was monitored by analyzing 25 microliters of each supernatant in scintillation proximity assay (SPA). (Solly, K.; Mundt, S. S.; Zokian, H. J.; Ding, G. J.; Hermanowski-Vosatka, A.; Strulovici, B.; Zheng, W. Assay Drug Dev. Technol. 2005, 3, 377-384),

[2] = target: microsomal 11β-HSD1 (Homo sapiens, UniProt P28845); assay: Inhibition of microsomal 11β-HSD1, Scintillation Proximity Assay; type: biochemical; settings: microsomal enzyme, same manner as purified enzyme assay
Procedure: (§1) The inhibition of purified 11β-HSD1 by compounds of Formula I was measured as follows using a Scintillation Proximity Assay. All reactions were carried out at room temperature in 96 well flexible Microbeta reaction plates. The assay begins by adding 1 microliter of a 0.1 mM solution of a compound of Formula I in DMSO previously diluted in half-log increments (8 points) starting at 1 micromolar final concentration. To this dot was added 50 microliters of substrate solution (50 mM HEPES, pH 7.4, 100 mM KCl, 5 mM NaCl, 2 mM MgCl2 containing […] of ^3H cortisone, 1 mM NADPH). After a 10 minute incubation, 50 microliters of enzyme solution containing 20 nM recombinant 11β-HSD1 (expressed in E. coli, and affinity purified) was added, The reaction was incubated for 90 minutes, and stopped by adding 50 microliters of SPA bead mix (18-β-glycyrrhetinic acid, 10 micromolar final, 5 mg/ml protein A coated YSi SPA beads, and 1-microgram/ml alpha-cortisol antibody (East Coast Biologics). The plate shaken for 120 minutes, and the radioactivity corresponding to ^3H cortisol was measured on a Wallac Microbeta.
The inhibition of microsomal 11β-HSD1 was carried out in the same manner.

[3] = target: T2, purified 11β-HSD1 (recombinant, expressed in E. coli) (Homo sapiens, UniProt P28845); assay: Inhibition of purified 11β-HSD1, Scintillation Proximity Assay; type: biochemical; settings: recombinant enzyme, 3H cortisone, NADPH, room temperature
T2 construct: made in house; host or cells: E. coli
Procedure: as §1

Measured: pIC50

microsomal 11β-HSD1, sequence (P28845 whole entry): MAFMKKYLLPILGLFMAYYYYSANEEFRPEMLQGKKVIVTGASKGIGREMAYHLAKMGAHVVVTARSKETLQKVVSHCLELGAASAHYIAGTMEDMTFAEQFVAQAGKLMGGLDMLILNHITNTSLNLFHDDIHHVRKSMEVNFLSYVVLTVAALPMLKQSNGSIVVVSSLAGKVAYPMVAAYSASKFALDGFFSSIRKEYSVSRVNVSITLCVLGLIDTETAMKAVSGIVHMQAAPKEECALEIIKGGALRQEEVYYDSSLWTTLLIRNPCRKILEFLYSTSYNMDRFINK
T2 sequence (P28845 whole entry): as above
T1 sequence (P28845 whole entry): as above

CN1C(=O)N(C2C3CC4CC(C3)CC2C4)C[C@@H]1C(C)(C)C (stereo partly drawn) [Example 28, (S)-1-(2-adamantyl)-4-tert-butyl-3-methylimidazolidin-2-one]
> 7.30: all assays above
